In US8906911B2, “Chemokine receptor antagonists” (AbbVie Inc., priority 2012, dated 2014):
Read-outs that look alike come from different tables or passages of the source.

Assays:
[1] = target: rat CCR2 (Rattus norvegicus (Rat), UniProt O55193); experiment: Inhibition of native agonist (rat MCP-1)-induced intracellular calcium release, calcium flux assay in CHO cells expressing rat CCR2 and Gα16; format: cell-based; settings: read-out: rCCR2 Kb
From the text: (§1) CHO cells expressing human CCR2B were generated as follows. cDNA for human CCR2B (cloned from human blood) was cloned into plasmid pcDNA3.1 (from Invitrogen). The resulting plasmids were separately transfected into CHO cells expressing human Gα16 (from Molecular Devices). […] CHO cells expressing rat CCR2 were generated as follows. cDNA for rat CCR2 (cloned from rat macrophage) was cloned into plasmid pEF-flag (from Chinese Academy of Science). The resulting plasmids were transfected into CHO cells expressing human Gα16 (from […]).
(§2) Inhibition of Native Agonist-Induced Intracellular Calcium Release in Cells Expressing hCCR2B or rCCR2
(§3) Calcium flux assays were performed in CHO cells expressing human CCR2B and Gα16 coupling protein, or rat CCR2 and Gα16 coupling protein. All compounds were dissolved in DMSO and assays run at a final DMSO concentration of 0.25% (v/v). Human MCP-1 was purchased from PeproTech and used at a final assay concentration of 2 nM, while rat MCP-1 was purchased from R&D and used at a final assay concentration of 4 nM. Assays with cells expressing human CCR2B were performed with human MCP-1, while assays with cells expressing rat CCR2 were performed with rat MCP-1.
(§4) Briefly, cells were cultured overnight in a microtiter plate at 8000 per well. The next day, the resultant adherent cells were incubated in assay buffer (20 mM HEPES, pH 7.4, 0.1% bovine serum albumin, and 2.5 mM probenocid in Hank's Buffered Saline Solution) containing Calcium 4 dye (Molecular Probes) at 37° C. for 60 minutes. Calcium flux assays were performed on a FLIPR^Tetra instrument (Molecular Devices) by adding compound to the cells followed by addition of native agonist and measuring the change in fluorescence as a function of time. Maximal and minimal values for fluorescence were determined using native agonist (2 nM MCP-1) for human or rat CCR2, or buffer addition, respectively. Fluorescence values were used to calculate the percent inhibition at a given compound concentration and the data fit to a sigmoidal curve in a semi-log plot to determine IC50 values. The Kb value is calculated as Kb=IC50/(1+[agonist]/EC50), where [agonist] is the concentration of agonist used and EC50 is the agonist potency determined in the previous experiments. Mean Kb values and IC50 of the compounds assayed are reported in Table 2 and Table 3 respectively.

[2] = target: human CCR2B (Homo sapiens (Human), UniProt P41597); experiment: Inhibition of native agonist (human MCP-1)-induced intracellular calcium release, calcium flux assay in CHO cells expressing human CCR2B and Gα16; format: cell-based; settings: for IC50: read-out: hCCR2B IC50
human CCR2B, sequence (P41597 other isoform, or with tags, fused parts or gaps): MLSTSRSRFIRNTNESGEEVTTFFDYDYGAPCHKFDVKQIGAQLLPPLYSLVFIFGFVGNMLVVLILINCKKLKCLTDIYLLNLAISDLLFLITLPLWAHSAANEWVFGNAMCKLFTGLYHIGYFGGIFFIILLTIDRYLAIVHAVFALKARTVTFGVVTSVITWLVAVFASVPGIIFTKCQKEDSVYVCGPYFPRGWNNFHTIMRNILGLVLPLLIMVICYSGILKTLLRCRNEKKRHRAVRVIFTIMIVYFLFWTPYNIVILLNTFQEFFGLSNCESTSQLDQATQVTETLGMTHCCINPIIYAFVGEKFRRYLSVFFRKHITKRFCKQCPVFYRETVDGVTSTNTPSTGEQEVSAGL
From the text: as §1, §2, §3, §4

rat CCR2, sequence (O55193 whole entry): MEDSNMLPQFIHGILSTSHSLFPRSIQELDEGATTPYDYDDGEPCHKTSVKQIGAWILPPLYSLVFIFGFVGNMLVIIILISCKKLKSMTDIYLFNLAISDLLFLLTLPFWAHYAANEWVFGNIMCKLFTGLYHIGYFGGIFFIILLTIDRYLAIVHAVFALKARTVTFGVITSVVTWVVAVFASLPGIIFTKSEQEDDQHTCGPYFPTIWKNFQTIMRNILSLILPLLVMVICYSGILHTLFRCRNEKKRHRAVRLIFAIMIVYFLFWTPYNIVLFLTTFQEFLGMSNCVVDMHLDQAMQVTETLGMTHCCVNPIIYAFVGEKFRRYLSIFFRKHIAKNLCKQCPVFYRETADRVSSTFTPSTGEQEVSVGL

| Structure (SMILES) | Kb [1] [nM] | IC50 ([2]; calcium flux, human MCP-1 2 nM) [nM] | Kb ([2]; read-out: hCCR2B Kb) [nM] | Kb [2] [nM] | IC50 [2] [nM] |
| --- | --- | --- | --- | --- | --- |
| CO[C@@H]1COCC[C@@H]1N[C@@H]1C[C@H]2CCC[C@@]2(C(=O)N2C[C@@H]3C[C@H]2CN3c2ccnc(Cl)c2)C1 [Example 35, 1,5-anhydro-3-{[(2R,3aR,6aR)-3a-{[(1S,4S)-5-(2-chloropyridin-4-yl)-2,5-diazabicyclo[2.2.1]hept-2-yl]carbonyl}octahydropentalen-2-yl]amino}-2,3-dideoxy-4-O-methyl-D-erythro-pentitol] | 240 | 2780 | 682 |  |  |
| CO[C@@H]1COCC[C@@H]1N[C@@H]1C[C@H]2CCC[C@@]2(C(=O)N2C[C@@H]3C[C@H]2CN3c2ccc(C#N)cc2C(F)(F)F)C1 [Example 37, 1,5-anhydro-3-{[(2R,3aR,6aR)-3a-({(1S,4S)-5-[4-cyano-2-(trifluoromethyl)phenyl]-2,5-diazabicyclo[2.2.1]hept-2-yl}carbonyl)octahydropentalen-2-yl]amino}-2,3-dideoxy-4-O-methyl-D-erythro-pentitol] | 248 | 1600 | 393 |  |  |
| CO[C@@H]1COCC[C@H]1N[C@@H]1C[C@H]2CCC[C@@]2(C(=O)N2[C@@H]3CC[C@H]2CN(c2cc(C(F)(F)F)ccn2)C3)C1 [Example 41, 1,5-anhydro-2,3-dideoxy-4-O-methyl-3-{[(2R,3aR,6aR)-3a-({(1R,5S)-3-[4-(trifluoromethyl)pyridin-2-yl]-3,8-diazabicyclo[3.2.1]oct-8-yl}carbonyl)octahydropentalen-2-yl]amino}-D-threo-pentitol] | > 4000 | 25000 | > 6140 |  |  |
| CO[C@@H]1COCC[C@@H]1N[C@@H]1C[C@H]2CCC[C@@]2(C(=O)N2C[C@@H]3C[C@H]2CN3c2cc(C#N)cc(C(F)(F)F)c2)C1 [Example 42, 1,5-anhydro-3-{[(2R,3aR,6aR)-3a-({(1S,4S)-5-[3-cyano-5-(trifluoromethyl)phenyl]-2,5-diazabicyclo[2.2.1]hept-2-yl}carbonyl)octahydropentalen-2-yl]amino}-2,3-dideoxy-4-O-methyl-D-erythro-pentitol] | 26 |  |  | 199 | 812 |
| CO[C@@H]1COCC[C@@H]1N[C@@H]1C[C@H]2CCC[C@@]2(C(=O)N2C[C@@H]3C[C@H]2CN3c2cc(C(F)(F)F)cc(C(F)(F)F)c2)C1 [Example 43, 1,5-anhydro-3-{[(2R,3aR,6aR)-3a-({(1S,4S)-5-[3,5-bis(trifluoromethyl)phenyl]-2,5-diazabicyclo[2.2.1]hept-2-yl}carbonyl)octahydropentalen-2-yl]amino}-2,3-dideoxy-4-O-methyl-D-erythro-pentitol] | 53 |  | 373 |  |  |
| CO[C@@H]1COCC[C@@H]1N[C@@H]1C[C@H]2CCC[C@@]2(C(=O)N2C[C@@H]3C[C@H]2CN3c2cccc(Cl)c2C#N)C1 [Example 44, 1,5-anhydro-3-{[(2R,3aR,6aR)-3a-{[(1S,4S)-5-(3-chloro-2-cyanophenyl)-2,5-diazabicyclo[2.2.1]hept-2-yl]carbonyl}octahydropentalen-2-yl]amino}-2,3-dideoxy-4-O-methyl-D-erythro-pentitol] | 486 | 1600 | 394 |  |  |
| CO[C@@H]1COCC[C@@H]1N[C@@H]1C[C@H]2CCC[C@@]2(C(=O)N2C[C@@H]3C[C@H]2CN3c2cccc(C(F)(F)F)c2C#N)C1 [Example 45, 1,5-anhydro-3-{[(2R,3aR,6aR)-3a-({(1S,4S)-5-[2-cyano-3-(trifluoromethyl)phenyl]-2,5-diazabicyclo[2.2.1]hept-2-yl}carbonyl)octahydropentalen-2-yl]amino}-2,3-dideoxy-4-O-methyl-D-erythro-pentitol] | 532 | 2200 | 542 |  |  |
| CO[C@@H]1COCC[C@@H]1N[C@@H]1C[C@H]2CCC[C@@]2(C(=O)N2C[C@@H]3C[C@H]2CN3c2ccc(Cl)c(C(F)(F)F)c2)C1 [Example 46, 1,5-anhydro-3-{[(2R,3aR,6aR)-3a-({(1S,4S)-5-[4-chloro-3-(trifluoromethyl)phenyl]-2,5-diazabicyclo[2.2.1]hept-2-yl}carbonyl)octahydropentalen-2-yl]amino}-2,3-dideoxy-4-O-methyl-D-erythro-pentitol] | 3 |  | 4 |  |  |
| CO[C@@H]1COCC[C@@H]1N(C)[C@@H]1C[C@H]2CCC[C@@]2(C(=O)N2C[C@@H]3C[C@H]2CN3c2cccc(C(F)(F)F)c2C#N)C1 [Example 54, 1,5-anhydro-3-{[(2R,3aR,6aR)-3a-({(1S,4S)-5-[2-cyano-3-(trifluoromethyl)phenyl]-2,5-diazabicyclo[2.2.1]hept-2-yl}carbonyl)octahydropentalen-2-yl](methyl)amino}-2,3-dideoxy-4-O-methyl-D-erythro-pentitol] | 2310 |  | 682 |  | 2780 |
| CO[C@@H]1COCC[C@@H]1N(C)[C@@H]1C[C@H]2CCC[C@@]2(C(=O)N2C[C@@H]3C[C@H]2CN3c2cc(C(F)(F)F)cc(C(F)(F)F)c2)C1 [Example 55, 1,5-anhydro-3-{[(2R,3aR,6aR)-3a-({(1S,4S)-5-[3,5-bis(trifluoromethyl)phenyl]-2,5-diazabicyclo[2.2.1]hept-2-yl}carbonyl)octahydropentalen-2-yl](methyl)amino}-2,3-dideoxy-4-O-methyl-D-erythro-pentitol] | 175 | 1410 | 346 |  |  |
| CO[C@@H]1COCC[C@@H]1N(C)[C@@H]1C[C@H]2CCC[C@@]2(C(=O)N2C[C@@H]3C[C@H]2CN3c2cc(C#N)cc(C(F)(F)F)c2)C1 [Example 57, 1,5-anhydro-3-{[(2R,3aR,6aR)-3a-({(1S,4S)-5-[3-cyano-5-(trifluoromethyl)phenyl]-2,5-diazabicyclo[2.2.1]hept-2-yl}carbonyl)octahydropentalen-2-yl](methyl)amino}-2,3-dideoxy-4-O-methyl-D-erythro-pentitol] | 55 | 521 | 128 |  |  |
| CO[C@@H]1COCC[C@@H]1N(C)[C@@H]1C[C@H]2CCC[C@@]2(C(=O)N2C[C@@H]3C[C@H]2CN3c2cccc(Cl)c2C#N)C1 [Example 58, 1,5-anhydro-3-{[(2R,3aR,6aR)-3a-{[(1S,4S)-5-(3-chloro-2-cyanophenyl)-2,5-diazabicyclo[2.2.1]hept-2-yl]carbonyl}octahydropentalen-2-yl](methyl)amino}-2,3-dideoxy-4-O-methyl-D-erythro-pentitol] | 515 | 2780 | 684 |  |  |
| O=C(N1C[C@@H]2C[C@H]1CN2c1cc(C(F)(F)F)ccn1)[C@@]12CCC[C@@H]1C[C@@H](N1CCOCC1)C2 [Example 59, [(2R,3aR,6aR)-2-(morpholin-4-yl)hexahydropentalen-3a(1H)-yl]{(1S,4S)-5-[4-(trifluoromethyl)pyridin-2-yl]-2,5-diazabicyclo[2.2.1]hept-2-yl}methanone] | 533 |  | 204 |  | 830 |
| C[C@H]1COCC[C@H]1N[C@@H]1C[C@H]2CCC[C@@]2(C(=O)N2C[C@@H]3C[C@H]2CN3c2cc(C(F)(F)F)ccn2)C1 [Example 62, [(2R,3aR,6aR)-2-{[(3R,4R)-3-methyltetrahydro-2H-pyran-4-yl]amino}hexahydropentalen-3a(1H)-yl]{(1S,4S)-5-[4-(trifluoromethyl)pyridin-2-yl]-2,5-diazabicyclo[2.2.1]hept-2-yl}methanone] | 55 | 445 | 109 |  |  |
